Measurements as given in patent US20230190680A1, “METHODS AND COMPOSITIONS FOR TREATING AN RNA VIRUS INDUCED DISEASE” (Golden Biotechnology Corporation, priority 2020, published 2023).
Where two headings read alike, the source gives them in different places.

What was measured:
TGFB1 = format: cell-based; details: 20 µM, DMSO 2.59-fold
MCP-1 = experiment: Local renal inflammation marker MCP-1 (FIG. 8); format: in vivo
HBeAg = experiment: ELISA of HBeAg in HepG2.2.15 supernatants; format: cell-based, HBV; details: 72 hours, FIG. 1A
Protocol: (§1) Cell Culture. HepG2.2.15 cell line was cultured in MEM medium, supplemented with 10% fetal bovine serum, penicillin (100 IU/ml; Gibco, USA), and streptomycin (100 ug/ml; Gibco, USA) in 5% CO2 incubator at 37° C. This is a cell line derived from human hepatoblastoma cell line HepG2 and characterized by having stable HBV expression. Qs5 is HBV-producing rat hepatoma cell lines.
(§2) Lamivudine (3TC) and Adefovir dipivoxil (Adv) are marketed for HBV treatment as positive controls. Antroquinonol (G4) and Lamivudine (3TC) dissolved in dimethylsulfoxide (DMSO) only for stock solutions and diluted in culture medium. The final concentration of DMSO in cells is less 0.1%. Drugs treated with 2×10^4 cells in 96-well plate for 72 hours.
(§3) The levels of HBsAg and HBeAg in HepG2.2.15 supernatants were measured using their commercial enzyme-linked immunosorbent assay (ELISA) kits following the manufacturer’s instructions.
(§4) To examine the effect of Antroquinonol on HBV protein expression, including surface antigen (HBsAg) and e antigen (HBeAg), ELISA assay was used to quantify HBV replication. The study results have shown that Compound 1 (i.e., Antroquinonol) reduces HBeAg (see FIG. 1A) and HBsAg (see FIG. 1B) expression levels. Compound 1 in comparison with Lamivudine, has shown reduction in the expression levels of the two major HBV biomarkers, HBeAg and HBsAg by 50% and 40% respectively.

IL-6 = experiment: Local renal inflammation marker IL-6 (FIG. 8); format: in vivo
Nrf-2 = experiment: Renal inflammation, NF-kB activation model (FIG. 7): nuclear Nrf-2 expression; format: in vivo
COL4A1 = format: cell-based; details: 20 µM; DMSO 2.37-fold; FIG. 13B
HCV RNA = HCV RNA activity (FIG. 2B); format: cell-based
NF-kB = experiment: Renal inflammation, NF-kB activation model (FIG. 7): NF-kB expression; format: in vivo
IL6 = format: cell-based; details: 10 µM; DMSO 47.81-fold; FIG. 12B
HBsAg = experiment: ELISA of HBsAg in HepG2.2.15 supernatants; format: cell-based, HBV; details: 72 hours, FIG. 1B
Protocol: as §1, §2, §3, §4

IL18 = format: cell-based; details: 20 µM, DMSO 1.36-fold
CXCL10 = format: cell-based; details: DMSO 9.04 fold
CD3 = experiment: Local renal inflammation marker CD3 (FIG. 8); format: in vivo
HepG2.2.15 cells = experiment: MTT assay (cytotoxicity); format: cell-based, human
Protocol: as §1
MTT assay. 1.25 ×10^5 cells/well were seeded onto 24-well plate. Cells were incubated with varying concentrations of G4 and 3TC (1, 5, 25, 50, 100 and 200 uM) for 72 hours. 1 mg/ml 3-(4, 5-dimethylthiazol-2-yl)-2, 5- diphenyltetrazolium- bromide (MTT) was added to each well and incubated for 2 hours at 37° C. to allow formation of the colored crystals. Medium was replaced with DMSO and plates were incubated for 15 minutes at room temperature with shaking to dissolve the crystals. The absorbance was measured by the microplate reader. The optical density was measured at 490 nm.

SARS-CoV-2 = format: cell-based; details: Vero E6 cells, MOI = 0.1, 24 h, FIG. 10

For COC1=C(OC)C(O)C(C/C=C(\C)CC/C=C(\C)CCC=C(C)C)C(C)C1=O (stereo not drawn) [Compound 1, 4-hydroxy-2,3-dimethoxy-6-methyl-5-(3,7,11-trimethyldodeca-2,6,10-trienyl)cyclohex-2-enone], which “change in TGFB1 expression” value (TGFB1) is on record?
Its value is 0.99 fold.

And the “suppression of MCP-1 expression” value (MCP-1)?
Its value is “around 50%”.

What about the “reduction in the expression level of HBeAg” value (HBeAg) of the same compound?
Its value is 50%.

What about the “suppression of IL-6 expression” value (IL-6) of the same compound?
The value was about 57%.

And the “enhancement in nuclear Nrf-2 expression” value (Nrf-2)?
The value was 2 times.

And the “change in COL4A1 expression” value (COL4A1)?
Its value is 0.65 fold.

And the “reduction in HCV RNA activity” value (HCV RNA)?
The value was 95%.

What about the “suppression in NF-kB expression” value (NF-kB) of the same compound?
The value was 36%.

And the “change in IL6 expression” value (IL6)?
The value was 11.88 fold.

And the “reduction in the expression level of HBsAg” value (HBsAg)?
The value was 40%.

What about the “change in IL18 expression” value (IL18) of the same compound?
The value was 0.89 fold.

What about the “change in CXCL10 expression” value (CXCL10; 10 µM) of the same compound?
Its value is 3.40 fold.

What about the “change in CXCL10 expression” value (CXCL10; 20 µM) of the same compound?
The value was 1.01 fold.

What about the “suppression of CD3 expression” value (CD3) of the same compound?
Its value is about 66%.

What about the “cytotoxicity by MTT assay” value (HepG2.2.15 cells; over 25 uM) of the same compound?
The value was “cytotoxicity effects”.

What about the “cytotoxicity by MTT assay” value (HepG2.2.15 cells; up to exposure to 5 uM) of the same compound?
Its value is “No apparent cytotoxicity”.

What about the “reduction of SARS-CoV-2 concentration” value (SARS-CoV-2; 10 µM) of the same compound?
Its value is 91.20%.

What about the “reduction of SARS-CoV-2 concentration” value (SARS-CoV-2; 20 µM) of the same compound?
Its value is 99.93%.
